Test results taken from patent US20240343733A1, “COMPOUNDS FOR TARGETING DEGRADATION OF IRAK4 PROTEINS” (BIOGEN MA INC., priority 2021, published 2024).

Tests used:
IRAK4 = test: Pharmacodynamics (PD) in Male Cynomolgus Monkeys, IRAK4 quantitation in PBMCs by MSD; format: in vivo; settings: male cynomolgus monkey PBMCs
Description: Assay 6. Pharmacodynamics (PD) in Male Cynomolgus Monkeys
For PBMC isolation, approximately 1 mL of blood sample was collected in a BD Vacutainer® EDTA Tubes (Catalog no. 36643, Becton, Dickinson and Co., Franklin Lakes, NJ, USA) with K2-EDTA and stored at room temperature (RT). The blood was diluted 1:1 with PBS at room temperature. The tube contents were mixed gently by pipetting up and down 5 times. The PBS/blood mixture was layered carefully on the top of 2 ml Ficoll® Paque Plus (Catalog no. 17-1440-03, Cytiva, Marlborough, MA, USA) in 15 mL falcon tubes, then centrifuged at RT for 30 minutes at 600 g with acceleration set at 6 and brake set at 0. The middle ‘cloudy’ interface between plasma and Ficoll® Paque Plus containing the PBMCs was transferred to a 15 mL tube and washed once with 10 mL of PBS, then centrifuged for 10 minutes at RT at 250 g. The supernatant was discarded without disturbing the cell pellet. If red blood cells were still present, 1 mL of lysis buffer was added, incubated for 2 minutes at RT, then 10 mL PBS was added to terminate lysis, and then centrifuged for 5 minutes at RT at 250 g. The supernatant was discarded without disturbing the cell pellet and stored at −80° C. until analysis.
For cell counting, the cell suspension was diluted 1:1 with Trypan Blue dye and mixed well. The cell numbers (live and dead) were counted, and cell viability calculated. The cell numbers and cell viability of each PBMC sample were recorded.
For sample preparation for MSD analysis, 2 million cells were subjected to lysis by 100 μL of RIPA lysis and extraction buffer (Catalog no 89900, ThermoScientific, Waltham, MA, USA) with phosphatase and protease inhibitors were added for 30 minutes at 4° C. To prepare RIPA lysis and extraction buffer with phosphatase and protease inhibitors, 1 tablet of cOmplete™, 1 tablet of PhosSTOP™, 100 μL each of Phosphatase Inhibitor Cocktail 2 and 3 (all catalog no. 11836153001, 4906845001, P5726 and P0044 respectively, Sigma Aldrich, St. Louis, MO, USA) were mixed with 10 mL RIPA buffer. The lysed PBMC samples were stored at −80° C. until analysis. Samples were completely thawed before being subjected to MSD analysis. The data was normalized using protein concentration and PBMC cell numbers, separately, for comparison.
For biomarker detection of IRAK4 in samples, MSD® or Meso Scale Discovery® biomarker assays technology was utilized, which is an ELISA-based method.
For the capture or coating step, 100 μL of IRAK4 Monoclonal Antibody (2H9) (Fisher, Catalog no. MA5-15883) was added to 96 well MSD multi-array 96 well plate (MSD Catalog no. L15XA-3, MSD multi-array 96 well plate). The plate was sealed and incubated overnight at 2-8° C. The plate was washed 5×300 μL/well with tris buffered saline wash buffer. 300 μL of blocking Buffer (3% BSA in 0.1% PBST) (Wuxi, Catalog no. BB-20211112-YJC) was added. The plate was sealed and incubated for 2 h±10 minutes at room temperature without shaking. The plate was washed 5×300 μL/well with tris buffered saline wash buffer. 100 μL of standard and samples were added into each well. The plate was sealed and incubated for 1 h 10 minutes at room temperature with shaking at 500 rpm. The plate was washed 5×300 μL/well with tris buffered saline wash buffer. 100 μL of detection solution containing IRAK4 antibody (Catalog no. 4363, Cell Signaling Technology, Danvers, MA, USA) was added into each well. The plate was sealed and incubated for 1 h 10 min at RT with shaking at 500 RPM. The plate was washed 5×300 μL/well with tris buffered saline wash buffer. 100 μL of sulfotag solution containing Sulfo-Tag labeled anti-rabbit antibody (Goat) (Catalog no. R32AB-1, Meso Scale Diagnostics, Rockville, MD, USA) was added into each well. The plate was sealed and incubated for 1 h+10 minutes at room temperature with shaking at 500 RPM. The plate was washed 5×300 […] with tris buffered saline wash buffer. […]

IKZF1 = molecular target: T1, IKZF1 (Homo sapiens, UniProt Q13422); test: IKZF1 Degradation Assay, HiBiT Method; format: cell-based; settings: NCIH929 cells expressing HiBiT-tagged IKZF1, 6 hours, top concentration 10 μM
T1 construct: endogenously expressing IKZF1 with HiBiT fusion tag via CRISPR
Summary of the method: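 NCIH929 cells expressing HiBiT-tagged IKZF1, 15000 cells/well in RPMI with 10% FBS and 0.05 mM 2-mercaptoethanol, exposed to compound 6 h at 37 °C. Remaining IKZF1 quantified by lytic HiBiT luminescence, normalised to untreated-cell and medium-only controls.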

T1 sequence (Q96SW2 whole entry partner, the tested form may be a part): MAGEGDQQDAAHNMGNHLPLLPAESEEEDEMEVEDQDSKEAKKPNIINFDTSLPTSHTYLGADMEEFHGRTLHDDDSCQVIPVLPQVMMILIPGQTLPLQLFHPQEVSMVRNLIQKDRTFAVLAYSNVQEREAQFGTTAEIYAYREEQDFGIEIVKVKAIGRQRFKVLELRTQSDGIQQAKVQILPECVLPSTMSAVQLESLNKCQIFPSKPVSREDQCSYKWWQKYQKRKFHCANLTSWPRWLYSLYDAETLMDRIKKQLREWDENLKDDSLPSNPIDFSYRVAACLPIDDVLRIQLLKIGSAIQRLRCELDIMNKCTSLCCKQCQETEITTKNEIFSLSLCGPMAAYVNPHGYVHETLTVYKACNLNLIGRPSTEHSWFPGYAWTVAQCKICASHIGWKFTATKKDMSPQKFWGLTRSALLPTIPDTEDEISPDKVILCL
T1 sequence (Q16531 whole entry partner, the tested form may be a part): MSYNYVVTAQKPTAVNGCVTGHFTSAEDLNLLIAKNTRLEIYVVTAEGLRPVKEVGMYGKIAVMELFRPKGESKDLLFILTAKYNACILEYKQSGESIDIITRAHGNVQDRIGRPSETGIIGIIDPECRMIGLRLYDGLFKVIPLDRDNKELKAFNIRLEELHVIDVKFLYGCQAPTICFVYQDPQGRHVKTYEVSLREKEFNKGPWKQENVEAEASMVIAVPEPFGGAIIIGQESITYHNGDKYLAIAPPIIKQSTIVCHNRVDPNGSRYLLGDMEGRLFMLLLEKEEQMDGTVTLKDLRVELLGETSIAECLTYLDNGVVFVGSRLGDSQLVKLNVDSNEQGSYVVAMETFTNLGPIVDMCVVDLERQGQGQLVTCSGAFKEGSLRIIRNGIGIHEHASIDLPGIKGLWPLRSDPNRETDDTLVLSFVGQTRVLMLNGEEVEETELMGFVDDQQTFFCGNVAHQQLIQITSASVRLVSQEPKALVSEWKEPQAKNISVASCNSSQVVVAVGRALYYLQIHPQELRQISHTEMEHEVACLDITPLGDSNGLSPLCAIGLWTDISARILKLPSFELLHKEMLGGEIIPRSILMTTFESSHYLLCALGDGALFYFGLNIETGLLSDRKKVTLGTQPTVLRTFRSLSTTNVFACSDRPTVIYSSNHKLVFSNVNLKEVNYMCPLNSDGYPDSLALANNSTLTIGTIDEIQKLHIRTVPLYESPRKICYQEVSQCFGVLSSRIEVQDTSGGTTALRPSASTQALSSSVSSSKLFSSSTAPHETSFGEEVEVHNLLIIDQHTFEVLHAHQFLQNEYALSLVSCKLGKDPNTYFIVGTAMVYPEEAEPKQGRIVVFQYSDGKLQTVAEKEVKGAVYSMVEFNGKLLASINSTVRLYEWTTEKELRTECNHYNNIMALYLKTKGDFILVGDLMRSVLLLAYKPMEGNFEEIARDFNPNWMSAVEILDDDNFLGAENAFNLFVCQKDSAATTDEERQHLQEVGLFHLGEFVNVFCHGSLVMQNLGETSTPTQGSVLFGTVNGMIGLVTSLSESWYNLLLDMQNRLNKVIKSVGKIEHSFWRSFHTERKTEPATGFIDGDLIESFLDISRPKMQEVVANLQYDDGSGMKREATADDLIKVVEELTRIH
T1 sequence (Q13422 whole entry, the tested form may be a part): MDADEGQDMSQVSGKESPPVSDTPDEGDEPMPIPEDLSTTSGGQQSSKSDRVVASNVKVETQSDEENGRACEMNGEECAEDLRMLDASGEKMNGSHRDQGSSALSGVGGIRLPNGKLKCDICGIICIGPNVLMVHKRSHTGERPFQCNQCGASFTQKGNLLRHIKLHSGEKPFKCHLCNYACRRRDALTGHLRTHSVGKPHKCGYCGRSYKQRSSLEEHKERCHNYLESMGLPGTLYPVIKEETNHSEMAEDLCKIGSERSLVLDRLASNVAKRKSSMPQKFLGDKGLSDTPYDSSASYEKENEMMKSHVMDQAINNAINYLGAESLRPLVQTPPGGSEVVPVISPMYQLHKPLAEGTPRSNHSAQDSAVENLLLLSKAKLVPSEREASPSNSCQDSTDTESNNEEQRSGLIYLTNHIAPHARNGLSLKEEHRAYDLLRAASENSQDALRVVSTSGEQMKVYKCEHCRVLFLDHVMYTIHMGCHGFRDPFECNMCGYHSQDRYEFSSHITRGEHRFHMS

Row | SMILES | IRAK4 change from vehicle (IRAK4; time 2 h) [%] | IRAK4 change from vehicle (IRAK4; time 8 h) [%] | IRAK4 change from vehicle (IRAK4; time 24 h) [%] | IRAK4 change from vehicle (IRAK4; time 48 h) [%] | IRAK4 change from vehicle (IRAK4; time 72 h) [%] | IRAK4 change from vehicle (IRAK4; time 96 h) [%] | DC50 (IKZF1) [µM]
1 | CC(C)Oc1cc2nc([C@H]3CC[C@H](CN4CCC(c5ccc6c(c5)n(C)c(=O)n6C5CCC(=O)NC5=O)CC4)CC3)cn2cc1C(=O)Nc1cccn([C@H]2C[C@H]2F)c1=O (stereo partly drawn) [Compound 169, 2-((1R,4S)-4-((4-(1-(2,6-dioxopiperidin-3-yl)-3-methyl-2-oxo-2,3-dihydro-1H-benzo[d]imidazol-5-yl)piperidin-1-yl)methyl)cyclohexyl)-N-(1-((1S,2R)-2-fluorocyclopropyl)-2-oxo-1,2-dihydropyridin-3-yl)-7-isopropoxyimidazo[1,2-a]pyridine-6-carboxamide] | −62 | −83 | −97 | −97 | −94 | −90 | –
2 | CC(C)Oc1cc2nc([C@H]3CC[C@H](CN4CCC(c5ccc6c(c5)n(C)c(=O)n6C5CCC(=O)NC5=O)CC4)CC3)cn2cc1C(=O)Nc1cnn2cccnc12 (stereo partly shown) [Compound 48, 2-[4-[[4-[1-(2,6-dioxo-3-piperidyl)-3-methyl-2-oxo-benzimidazol-5-yl]-1-piperidyl]methyl]cyclohexyl]-7-isopropoxy-N-pyrazolo[1,5-a]pyrimidin-3-yl-imidazo[1,2-a]pyridine-6-carboxamide] | −50 | −87 | −96 | −94 | −94 | −87 | > 10
